Assay results reported in patent US9217150B2, “NRPS-PKS gene cluster and its manipulation and utility” (SINTEF TTO AS, priority 2008, dated 2015).

Tested on: strain DSM 21069 (isolate MP28-13)
Test: Antibiotic resistance characteristics of strain DSM 21069
Format: cell-based, Streptomyces

| Compound | Antibiotic resistance (antibiotic at 5 μg/ml) | Antibiotic resistance (antibiotic at 10 μg/ml) | Antibiotic resistance (antibiotic at 20 μg/ml) | Antibiotic resistance (antibiotic at 50 μg/ml) |
| --- | --- | --- | --- | --- |
| CN[C@@H]1[C@@H](O[C@H]2O[C@H](CO)[C@@H](N)[C@H](O)[C@H]2O)OC2C[C@@H](N)[C@@H](O[C@H]3[C@H](O)[C@@H](O)[C@H](N)C[C@@H]3N)OC2[C@@H]1O (some centres unmarked) [Apramycin] | sensitive | sensitive | sensitive | sensitive |
| CO[C@H]1/C=C/O[C@@]2(C)Oc3c(C)c(O)c4c(O)c(cc(O)c4c3C2=O)NC(=O)/C(C)=C\C=C\[C@H](C)[C@H](O)[C@@H](C)[C@@H](O)[C@@H](C)[C@H](OC(C)=O)[C@@H]1C [Rifamycin] | resistant | resistant | resistant | sensitive |
| [H]/N=C(/N)N[C@H]1[C@H](O)[C@@H](O)[C@H](O[C@@H]2O[C@@H](C)[C@](O)(C=O)[C@H]2O[C@@H]2O[C@@H](CO)[C@H](O)[C@@H](O)[C@@H]2NC)[C@@H](N/C(N)=N\[H])[C@@H]1O [Streptomycin] | resistant | resistant | resistant | resistant |
| C=C(NC(=O)C(=C)NC(=O)c1csc(C2=N[C@@H]3c4csc(n4)[C@H]4NC(=O)c5csc(n5)[C@H]([C@](C)(O)[C@@H](C)O)NC(=O)[C@H]5CSC(=N5)/C(=C/C)NC(=O)[C@H]([C@@H](C)O)NC(=O)c5csc(n5)[C@]3(CC2)NC(=O)[C@H](C)NC(=O)C(=C)NC(=O)[C@H](C)NC(=O)[C@H]([C@@H](C)CC)N[C@@H]2C=Cc3c([C@H](C)O)cc(nc3[C@H]2O)C(=O)O[C@@H]4C)n1)C(N)=O [Thiostrepton] | sensitive | sensitive | sensitive | sensitive |
| Neomycin | sensitive | sensitive | sensitive | sensitive |
